Experiment [1] deals with T1, ENL YEATS domain (His-ENL YEATS) (Homo sapiens, UniProt Q03111).
T1 construct: (aa 1−148) was cloned in pET19b; made in house; host or cells: E. coli BL21(DE3pLysS)
T1 sequence (Q03111 1-148): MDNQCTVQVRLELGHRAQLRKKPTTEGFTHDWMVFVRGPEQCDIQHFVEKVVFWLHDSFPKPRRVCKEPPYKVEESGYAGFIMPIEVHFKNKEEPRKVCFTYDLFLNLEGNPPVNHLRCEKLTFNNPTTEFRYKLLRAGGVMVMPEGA
Put plainly: AlphaScreen inhibition of ENL YEATS binding to biotinylated H3K27cr peptide. The following applies: mean ± SD, n = 3. An excerpt: (§1) To test the inhibition potency of the two selected peptides for the ENL YEATS domain, ENL-S1 and ENL-S2 were chemically synthesized through solid-phase peptide synthesis (SPPS) and evaluated by an AlphaScreen assay. In this assay, a biotinylated H3K27cr peptide and a 6xHis-tagged ENL YEATS domain (His-ENL YEATS) were immobilized on PerkinElmer streptavidin donor and nickel-chelating (Ni-NTA) acceptor beads, respectively. The use of a His-ENL YEATS instead of the original AviSUMO-ENL YEATS construct in the assay prevents potential false positive results derived from ligands which bind to the SUMO protein but not to the ENL YEATS domain. […] We then assessed the binding affinity of two ligands for the ENL YEATS domain using biolayer interferometry (BLI). Briefly, His-ENL was immobilized onto Ni-NTA functionalized biosensors to measure the binding kinetics of target peptides at different concentrations. […] As a small peptide directly selected from a phage display library, this level of high potency was unexpected. […] However, shorter-than-10-mer linear peptides with nanomolar binding potency have rarely been directly selected from phage display libraries. One example was S2P03, a 7-mer peptide that has a KD value as 49 ± 9 nM to bind to SIRT2.[10] This peptide contained BuK and was identified also from a BuK-containing phage display library using the active site-directed ligand selection technique. Taken together, the two examples confirmed that utilizing phage display libraries incorporated with a ncAA serving as a ligand for a protein target for active site-directed ligand selection is a successful method for identifying ultrahigh potency ligands for epigenetic proteins including both enzymes and readers. For ENL-S1 and ENL-S2, their determined kon and koff values were 6.23 ± 0.07 × 10^4 M^–1 s^–1, […] and […], 5.54 ± 0.02 × 10^–3 s^–1, respectively. Compared to ENL-S2, ENL-S1 has faster binding to the ENL YEATS domain and slower release from it, indicating its potential long-term action on the ENL YEATS inhibition. […]
Characterization of Selected Peptide Inhibitors
AlphaScreen Assay to Validate ENL Inhibitors:
His-ENL, His-AF9 (aa 1-149, EpiCypher), and biotinylated H3K27cr (aa 15-33, EpiCypher) were used to assay the synthesized inhibitors. The lyophilized peptide inhibitors were dissolved in DMF […]
and serially diluted into assay buffer (50 mM HEPES, 100 mM NaCl, 0.1% BSA, 0.05% CHAPS, pH 7.4) and incubated in the presence of 120 nM His-tagged protein at 37 °C for 30 minutes. 12.5 μL of biotinylated H3K27cr (400 nM) was aliquoted into a light gray 384-well Alphaplate (Perkin Elmer) and incubated at 37 °C. 12.5 μL of the inhibitor/protein solution was added to the H3K27cr solution, and incubated for 30 minutes at 37 °C. 25 μL of AlphaScreen histidine (nickel chelate) detection beads (Perkin Elmer) was added at 20 μg/mL each bead (streptavidin donor beads and nickel chelate acceptor beads), and the plate was incubated at 37 °C for 30 minutes. The plate was cooled to room temperature for 10 minutes, and then the beads were excited at 680 nm and the luminescence at 615 nm was read. […]
Biolayer […]
interferometry assays were performed in 96 well plates (GreinerBio-One, polypropylene, flat-bottom) using an Octet Red96 System (Sartorius). Wells were filled with 200 μL of assay buffer, blocking buffer (assay buffer + 0.1% BSA), protein solution, peptide solution, regeneration solution, and reload solution. For immobilization, His-tagged proteins were immobilized onto Ni-NTA sensors at 20 for 600 s. Sensors were then dipped into blocking buffer for 180 s, assay […] buffer for 300 s, peptide solution for 300 s, and back to assay buffer for 300 s. If multiple samples were tested, Ni-NTA sensors can be reconditioned in regeneration (10 mM glycine, pH 1.7) solution followed by reload solution (10 mM NiCl2) for 30 and 60 s, respectively. Measurements […]
For orientation: Bead proximity is the source of the signal in Alpha formats.

For experiment [2], the target named is T2, ENL YEATS domain (His-ENL) (Homo sapiens, UniProt Q03111).
T2 construct: (aa 1−148) was cloned in pET19b; made in house; host or cells: E. coli BL21(DE3pLysS)
T2 sequence (Q03111 1-148): T1 sequence (Q03111 1-148)
Description: Biolayer interferometry (BLI) binding to ENL YEATS. To be noted: for Selectivity (ENL:AF9) from BLI KD values: ratio KD,AF9 / KD,ENL.
Text: as §1
Biolayer Interferometry to Validate ENL Ligands:
His-ENL, His-AF9 (aa 1-149, EpiCypher), His-GAS41 (aa 15-160, EpiCypher), and YEATS2-His (aa 200-345, EpiCypher) were reconstituted in water and diluted into assay buffer (20mM Tris, 300 mM NaCl, pH 7.9) for immobilization onto Octet Ni-NTA biosensors (Sartorius). Lyophilized peptides were dissolved in DMF and diluted to designated concentrations in assay buffer. Biolayer interferometry assays were performed in 96 well plates (GreinerBio-One, polypropylene, flat-bottom) using an Octet Red96 System (Sartorius). Wells were filled with 200 μL of assay buffer, blocking buffer (assay buffer + 0.1% BSA), protein solution, peptide solution, regeneration solution, and reload solution. For immobilization, His-tagged proteins were immobilized onto Ni-NTA sensors at 20 for 600 s. Sensors were then dipped into blocking buffer for 180 s, assay […] buffer for 300 s, peptide solution for 300 s, and back to assay buffer for 300 s. If multiple samples were tested, Ni-NTA sensors can be reconditioned in regeneration (10 mM glycine, pH 1.7) solution followed by reload solution (10 mM NiCl2) for 30 and 60 s, respectively. Measurements were carried out at 30 °C. Data were analyzed within the ForteBio Data Analysis software. Data were processed by double subtracting ligand only and protein only reference wells and aligning the data to the beginning of the association. Then, global kinetic fit was performed for all sensogram curves with a 1:1 model. Steady state KD values were reported.
AlphaScreen Assay with Biotinylated-ENL-S1:
The AlphaScreen assay was carried out in 384-well plates. Manual assay setup was performed in a 40 uL reaction buffer (50 mM HEPES pH 7.4, 100 mM NaCl, 0.1% bovine serum albumin, and 0.05% CHAPS). 10 µL of varying concentrations of His-ENL YEATS (0-300 nM) and 10 µL of […]
For orientation: In BLI a coated tip is dipped into the sample, and binding shifts an interference pattern.

Structures are written as SMILES. Values joined by “and” are separate entries in the source; they are usually repeats but may differ in a detail not shown here. Equal values may be shown once. Where a SMILES comes first, the peptide text is derived from it. The star is where a group is joined. Oxazole(5-CO) = O=C(c1cnco1)*; Crotonyl(E) = C/C=C/C(=O)*; 2Furoyl = O=C(c1ccco1)*; Butyryl = CCCC(=O)*

Usually IC50 stands for the point on the concentration scale where inhibition reaches its midpoint. A lower IC50 goes with inhibition by little substance. One may read the Kd as a measure of binding affinity in units of concentration. A high value points to lower affinity. As a reminder, the kon is the rate constant with which the complex forms. A low value points to slower complex formation.

`CCCC(=O)NCCCC[C@H](NC(=O)[C@H](Cc1ccc(O)cc1)NC(=O)[C@H](CS)NC(=O)[C@H](Cc1ccc(O)cc1)NC(=O)[C@@H](NC(=O)[C@H](CC(=O)O)NC(=O)[C@@H](N)Cc1ccc(O)cc1)C(C)C)C(N)=O` [ENL-S1] (H-YDVYCYK(Butyryl)-NH2) displayed an IC50 in experiment [1] of 0.0626 ± 0.0014 µM. For the same molecule, in experiment [2] (BLI), the Kd is 0.0363 µM and 0.036 µM; the kon amounted to 62300 ± 7e+06 M⁻¹ s⁻¹. Moreover, the “Selectivity (ENL:AF9) from BLI KD values” in experiment [2] is on record as 5.6 fold.

`C/C=C/C(=O)NCCCC[C@H](NC(=O)[C@H](Cc1ccc(O)cc1)NC(=O)[C@H](CS)NC(=O)[C@H](Cc1ccc(O)cc1)NC(=O)[C@@H](NC(=O)[C@H](CC(=O)O)NC(=O)[C@@H](N)Cc1ccc(O)cc1)C(C)C)C(N)=O` [ENL-S1c] (H-YDVYCYK(Crotonyl(E))-NH2) showed an IC50 in experiment [1] of 0.02 µM. The Kd in experiment [2] (BLI) is 0.0162 µM. Further, the “Selectivity (ENL:AF9) from BLI KD values” in experiment [2] is recorded as 9.1 fold.

The molecule `CC(C)[C@H](NC(=O)[C@H](CC(=O)O)NC(=O)[C@@H](N)Cc1ccc(O)cc1)C(=O)N[C@@H](Cc1ccc(O)cc1)C(=O)N[C@@H](CS)C(=O)N[C@@H](Cc1ccc(O)cc1)C(=O)N[C@@H](CCCCNC(=O)c1ccco1)C(N)=O` [ENL-S1f] (H-YDVYCYK(2Furoyl)-NH2) gave an IC50 in experiment [1] of 0.0224 ± 0.0022 µM. Further, in experiment [2] (BLI), the Kd amounted to 0.0103 µM. Besides, in experiment [2], the “Selectivity (ENL:AF9) from BLI KD values” is recorded as 14.0 fold.

In the case of `CC(C)[C@H](NC(=O)[C@H](CC(=O)O)NC(=O)[C@@H](N)Cc1ccc(O)cc1)C(=O)N[C@@H](Cc1ccc(O)cc1)C(=O)N[C@@H](CS)C(=O)N[C@@H](Cc1ccc(O)cc1)C(=O)N[C@@H](CCCCNC(=O)c1cnco1)C(N)=O` [ENL-S1o] (H-YDVYCYK(Oxazole(5-CO))-NH2), in experiment [1], the IC50 is 0.01 µM and 0.0103 µM. This molecule also had a Kd in experiment [2] (BLI) of 0.002 µM. In experiment [2], the “Selectivity (ENL:AF9) from BLI KD values” was 27.6 fold.

The record behind these values is PMC11046469, “Leveraging a Phage-Encoded Noncanonical Amino Acid: A Novel Pathway to Potent and Selective Epigenetic Reader Protein Inhibitors” (ACS Central Science, 2024).
